The source of these data is patent US11666565B2, “Treatment of cancer using a SMAD3 inhibitor” (The Chinese University of Hong Kong, priority 2012, dated 2023).

One test has as its system melanoma (B16F10). Conditions: syngeneic mouse model, N=5. The method, then: (§1) Therapeutic effect of SIS3 was tested in subcutaneously invasive mouse model of lung carcinoma and melanoma. Lucifase-labeled highly invasive mouse lung carcinoma cells (LLC-luc) and melanoma cells (B16F10-luc) were injected subcutaneously into genetically-identical C57/BL6 mice at a dose of 2 million cells in 200 ul PBS per mouse. Cancer growth, invasion, and metastasis were monitored by measuring tumor size, weight, and bioluminescent imaging weekly. After cancer was established at one week after implantation, tumor-bearing mice received intraperitoneally SIS3 at dosages of 2.5, 5, and 10 ug/Kg body weight daily for 2 weeks. Control animals received daily saline, instead of SIS3, and a group of tumor-bearing mice without any treatment (used as untreated controls) were also monitored. Five mice per group were used in this study. Mice were weighed and tumor size or metastasis was examined by live bioluminescent imaging weekly. The survival rate was recorded. All mice were euthanized 2 weeks after treatment for further examination by histology and tumor volume and weight, invasion, and metastasis.

For another test, the system named is lung carcinoma (LLC). The method, then: as §1

In the case of `COc1cc2c(cc1OC)CN(C(=O)/C=C/c1c(-c3ccccc3)n(C)c3ncccc13)CC2` [SIS3, (6,7-Dimethoxy-2-((2E)-3-(1-methyl-2-phenyl-1H-pyrrolo[2,3-b]pyridin-3-yl-prop-2-enoyl))-1,2,3,4-tetrahydroisoquinoline)], the cancer weight entry with melanoma (B16F10) (subcutaneous melanoma B16F10, 3 million cells/mouse, FIG. 4) was “markedly lowering the cancer weight”. In the test on melanoma (B16F10) (SIS3 intraperitoneally daily, 2.5, 5 and 10 ug/Kg body weight, FIG. 3), the “melanoma (B16F10) growth by live imaging analysis” value is recorded as “inhibits melanoma (B16F10) growth in a dosage-dependent manner”. Moreover, the detectability of cancers result with lung carcinoma (LLC) (after 10 days treatment with SIS3 at doses of 5-10 μg/g body weight, N=5, FIG. 6) is reported as “most of cancers become undetectable”. Further, the “invasion into the cancer surrounding tissues and metastasis to lymph nodes, lung, liver, gastric and colon tissue” value in the test on lung carcinoma (LLC) (lung carcinoma (LLC) mouse model, FIGS. 3-7) was “suppressed”. Besides, the “cancer growth as demonstrated by tumor weight” value with lung carcinoma (LLC) (subcutaneous LLC, 2 million cells/mouse, syngeneic mouse model, N=5, FIG. 7A) is recorded as “prevents cancer growth”.
